The source of these data is ChEMBL document CHEMBL3507680, “University of Dundee, Gates Library screen for HepG2 cell viability”.

This series in a line: Human HepG2 cell viability assay in 384 well format. Also noted: dose 125 nL, time 70.5 hour; concentration not given beside the values. The series is classed as toxicity, cell-based. To be noted: HepG2 cells, read-out: Inhibition.

Regarding `CC/C=C(/C)C(=O)NS(=O)(=O)c1ccc(C#N)c(C(F)(F)F)c1`, the cytotoxicity at 70.5 h is -12.5%.
The figure for `COc1ccccc1C(C)(C)NC(=O)NC1CCC(O)CC1` (stereo not given) is -15.4%; for `O=C(Nc1cccnc1)NC(CCCO)c1ccccc1` (stereo not given) it is -16%.
With `CCNC(=O)N1CCc2ccc(NC(=O)C(C)c3ccsc3)cc21` (stereo not given), the cytotoxicity at 70.5 h is -11.3%.
As to `O=C1CCCc2[nH]c(=O)c(C(=O)N3CCc4ccccc4C3)cc21`, the cytotoxicity at 70.5 h was 0.27%.
To `Cn1nccc1NC(=O)CN1CCc2sccc2C1` belongs -11.2%.
To `CN(C)Cc1ccc(CNC(=O)NCC2(C)CCCS2)cc1` (stereo not given) belongs 7.26%.
To `O=C1CCC(C(=O)Nc2cnn(-c3ccccc3Br)c2)N1` (stereo not given) belongs -15.6%; to `Cc1ccc(F)c(N2CCCC(Nc3nccn4cnnc34)C2=O)c1` (stereo not given), -11.1%; to `O=C1C(Nc2nccn3cnnc23)CCN1c1cccc(Cl)c1` (stereo not given), -11.2%.
As for `CC(C)n1nccc1NC(=O)CN1CCc2sccc2C1`, the cytotoxicity at 70.5 h is -15.3%.
On to `CC(C)CN1CCC(NC(C)c2ccccc2-n2cccn2)CC1` (stereo not given), for which the cytotoxicity at 70.5 h is -3.22%.
The figure for `CN(Cc1cccc(OC(F)(F)F)c1)C(=O)c1cnsn1` is -3.78%.
As to `CC(C)C(NC(=O)c1ccccc1F)C(=O)Nc1cnn(C)c1` (stereo not given), the cytotoxicity at 70.5 h was -13.2%.
Consider `CCn1cnnc1CCNC(=O)C(C)(C)c1cccc(Cl)c1`, for which the cytotoxicity at 70.5 h is -7.37%.
To `CC(Nc1ccc(CN2CCCC2=O)cc1)C(=O)N(C)CCC#N` (stereo not given) belongs 0.0537%.
The figure for `CC(Nc1ccc(CCN2CCOCC2)cc1)C(=O)N(C)CCC#N` (stereo not given) is 9.3%.
On to `Cc1c(NCCOCC(F)(F)F)cccc1C(=O)N1CCCC1`, for which the cytotoxicity at 70.5 h was -10.8%.
To `Cc1cc(C(=O)N2CCCC2)ccc1NCCO` belongs -10.2%; to `Cc1ccc(NCc2ccco2)cc1N1CCOC1=O`, -16%; to `COc1ccc(-c2nc(C3(NC(=O)OC(C)(C)C)CCC3)no2)cn1`, -3.79%.
To `CCOCc1ccc(NC(=O)NC2CCCn3nc(CC)nc32)cc1` (stereo not given) belongs -7.72%; to `CC(C)(C)OC(=O)NC1(c2noc(-c3ccco3)n2)CCC1`, -9.18%.
For `Fc1ccc(CNc2ccccc2Cn2cncn2)cc1`, the cytotoxicity at 70.5 h was -7.99%.
To `O=S(=O)(CC1CCOCC1)NCc1ccnc(O)c1` belongs 10.4%.
For `C=C(C)Cn1ccc2cc(OC)c(F)cc2c1=O`, the cytotoxicity at 70.5 h is -2.43%.
To `COc1cc2ccn(CCCO)c(=O)c2cc1F` belongs -6.17%; to `O=C(NC1CC(F)(F)C1)[C@]12COC[C@H]1CN(Cc1ccsc1)C2`, -2.91%; to `Cc1nnc([C@@]23CCO[C@@H]2CCN(Cc2ccc4c(c2)OCO4)C3)o1`, -2.95%.
`CN(C)C(=O)C1CCC2(CCN(C(=O)Nc3ccc(F)cc3)CC2)O1` (stereo not given): the cytotoxicity at 70.5 h is -12.4%.
The figure for `CC1c2ncc(COc3cccnc3)n2CCN1Cc1ccco1` (stereo not given) is -12.4%.
The figure for `CN1CCN(S(=O)(=O)C2CC2)Cc2cccnc21` is -0.334%; for `O=C(c1ccsc1)N1CCC2(CC1)CCN(S(=O)(=O)C1CC1)CC2` it is -9.77%.
On to `COCC1CN(CCc2ccc(OC)c(OC)c2)Cc2c1cnn2C` (stereo not given), for which the cytotoxicity at 70.5 h is -8.2%.
For `CC(C)n1cnc(-c2nc(C(=O)NC3CC3)c3ccccn23)c1`, the cytotoxicity at 70.5 h was -15.8%.
As for `COCc1cnc2n1CCN(C(=O)c1cc3ccccc3o1)C2C` (stereo not given), the cytotoxicity at 70.5 h was 18.8%.
To `COCc1cnc2n1CCN(C(=O)c1oc3ccccc3c1C)C2C` (stereo not given) belongs 18.3%; to `COCc1cnc2n1CCN(C(=O)c1cnc3ccccc3c1)C2C` (stereo not given), -9.53%; to `Cn1cccc1C(=O)N1C[C@H](OCC2CCOCC2)[C@H]2COC[C@H]21`, -10.8%.
Turning to `Cc1cccc(S(=O)(=O)N2CCC3(CC2)CC(N(C)C)CO3)c1` (stereo not given), the cytotoxicity at 70.5 h was -10.7%.
For `CCc1cnc(N2CC3(CCN(S(=O)(=O)C4CC4)C3)C2)nc1`, the cytotoxicity at 70.5 h is -8.49%.
Regarding `O=C(NCC1CC1)[C@@H]1CC[C@@H]2[C@@H](CCN2CCOCc2ccccc2)O1`, the cytotoxicity at 70.5 h was -9.94%.
On to `c1csc(CNCC2COCc3c(-c4ccsc4)nnn3C2)n1` (stereo not given), for which the cytotoxicity at 70.5 h is -7.15%.
The figure for `CC(=O)N1CCC(c2nnc3ccc(C(=O)NCCN(C)C)cn23)C1` (stereo not given) is -10.5%; for `CNC(=O)CN1CCOCC2(C1)CN(Cc1csnn1)CCO2` (stereo not given) it is 12.8%; for `Cc1cc(C(=O)N2CCc3ncc(CN4CCCCC4)n3CC2)no1` it is 21.9%.
In the case of `CNC(=O)[C@H]1C[C@@H]2CN(C(=O)NC(C)C)C[C@H]1O2`, the cytotoxicity at 70.5 h stood at 23%.
Regarding `CC(C)CN1C[C@@H]2CN(c3cnccn3)C[C@@H]2C1=O`, the cytotoxicity at 70.5 h turned out to be 29.2%.
The figure for `Cc1cnc(N2CCOC3(COCCN(c4nccs4)C3)C2)nc1` (stereo not given) is -4.6%; for `O=C1[C@H]2CN(c3cnccn3)C[C@H]2CN1CC1CC1` it is -12.5%.
As for `Cn1cnc(-c2nc(C(=O)NC3CC3)c3ccccn23)c1`, the cytotoxicity at 70.5 h was -1.89%.
For `Cc1cnc(N2CCCC3(COCCN(c4nccs4)C3)C2)nc1` (stereo not given), the cytotoxicity at 70.5 h was -8.41%.
To `CN(C)C(=O)CO[C@H]1CO[C@@]2(CCN(S(C)(=O)=O)C2)C1` belongs -6.98%; to `CN(C)C(=O)CO[C@H]1CO[C@@]2(CCN(Cc3ccoc3)C2)C1`, -5.9%; to `Cn1cnc(-c2nc(C(=O)NCC3CCCO3)c3ccccn23)c1` (stereo not given), -0.333%.
To `CNC(=O)[C@@H]1C[C@H]2CN(Cc3ccc(C)o3)C[C@H]2N1C(C)=O` belongs -0.0424%; to `COc1cc(N2CCC3(CC2)C(c2ccncc2)CC(=O)N3C)ncn1` (stereo not given), -9.06%.
To `Cn1cc(N2C(=O)C[C@@H]3[C@@H]2CCN3C(=O)c2ccco2)cn1` belongs -6.04%; to `CCC(O)CNc1ccc(-c2nc(CC(C)C)no2)cn1` (stereo not given), -14.3%.
For `CCC(CO)N(Cc1ccc(C(=O)O)cc1)Cc1ccsc1` (stereo not given), the cytotoxicity at 70.5 h was -5.5%.
Turning to `CC(=O)N1CC[C@]2(O)CCN(Cc3nc(C)c[nH]3)C[C@@H]2C1`, the cytotoxicity at 70.5 h was found to be 9.69%.
To `COc1ccc(Cn2c(CCc3c(C)n[nH]c3C)n[nH]c2=O)cc1` belongs -3.26%; to `Cc1nc(-c2ccncc2)ncc1C(C)NC(=O)CN1CCOC1=O` (stereo not given), -5.31%; to `Cc1nn(C)c2nc(N3CCNC(=O)C3Cc3ccccc3)sc12` (stereo not given), -2.78%.
Turning to `Cn1cccc1-c1cc(C(=O)N2CCCC2c2nccs2)[nH]n1` (stereo not given), the cytotoxicity at 70.5 h was -0.138%.
In the case of `CC(C)N1CCCC2(CCN(C(=O)COCC(F)(F)C(F)F)C2)C1=O` (stereo not given), the cytotoxicity at 70.5 h is -3.34%.
In the case of `c1cc(CN(CCCn2ccnc2)Cc2ccoc2)ccn1`, the cytotoxicity at 70.5 h is -4.93%.
As for `Cc1cc(CN2CCC(C3CCN(Cc4cccnc4)CC3)C2)[nH]n1` (stereo not given), the cytotoxicity at 70.5 h was -6.23%.
On to `CSCC[C@@H](CO)Nc1ccc(-c2nc(-c3ccccc3F)no2)cn1`, for which the cytotoxicity at 70.5 h was -6.28%.
To `CN1C(=O)C2(CCNCC2)c2cc(F)ccc21` belongs -4.69%.
For the molecule `CN1C(=O)C2(CCN(S(C)(=O)=O)CC2)c2cc(F)ccc21`, the cytotoxicity at 70.5 h is -3.04%.
For the molecule `COc1cc(N2CCC3(CC2)CCN(c2cccnc2)C3=O)ncn1`, the cytotoxicity at 70.5 h was -9.9%.
The figure for `Cn1cccc1C(=O)NCc1cnc2n1CCN(CC1CCOCC1)C2` is -3.17%.
On to `CN1CCN(S(=O)(=O)c2ccccc2)Cc2cccnc21`, for which the cytotoxicity at 70.5 h was -4.28%.
Turning to `Cc1cc(C(=O)N2CCC3(CC2)C(=O)N(C)CCN3CC2CC2)c(C)o1`, the cytotoxicity at 70.5 h was -2.24%.
As to `Cc1ccc(C(=O)N2CCC3(CCN3Cc3ccc(F)cc3)C2)cn1` (stereo not given), the cytotoxicity at 70.5 h is -8.15%.
To `CCS(=O)(=O)Nc1ccc2c(c1)C1(CCOCC1)CN2C` belongs -1.55%; to `CNC(=O)c1cc2c(nc1N(C)C)CCN(c1ncc(C)cn1)CC2`, -6.83%; to `CCOC[C@]12COC[C@H]1CN(Cc1ccc(F)c(F)c1)C2`, -4.64%.
For the molecule `COCc1cnc2n1CCN(C(=O)c1ccc3ccccc3n1)C2C` (stereo not given), the cytotoxicity at 70.5 h is -8.35%.
With `CNC(=O)[C@H]1CC[C@@H]2[C@@H](CCN2CCOCc2ccccc2)O1`, the cytotoxicity at 70.5 h was -12.3%.
To `O=C(NCCc1cccs1)[C@]12COC[C@H]1CN(c1ncccn1)C2` belongs -13.7%; to `O=C(NC1CCC1)[C@@H]1CC[C@@H]2[C@@H](CCN2CCc2ccccc2)O1`, -13.9%.
Consider `Cc1nc(CO[C@H]2CN(C(=O)c3ccc[nH]3)[C@@H]3COC[C@H]23)cs1`, for which the cytotoxicity at 70.5 h is -13%.
The figure for `CCN(C(=O)c1ccc2nnc(C3CCN(C)C3)n2c1)C(C)C` (stereo not given) is -11.3%; for `O=C(c1ccco1)N1CC[C@H]2[C@H]1CC(=O)N2c1cccnc1` it is 21.7%.
For the molecule `CN(C)C(=O)CO[C@H]1CO[C@@]2(CCN(Cc3ccsc3)C2)C1`, the cytotoxicity at 70.5 h was -6.3%.
For the molecule `Cn1cc(-c2ncc3c(c2C(=O)O)CCN(CC2CC2)C3)cn1`, the cytotoxicity at 70.5 h was -1.4%.
As to `Cc1cccc(CN2CCCC3(CCN(CC4CCCO4)CC3)C2)n1` (stereo not given), the cytotoxicity at 70.5 h was -11.4%.
For the molecule `Cc1csc(CN2CCn3c(COc4cccnc4)cnc3C2C)n1` (stereo not given), the cytotoxicity at 70.5 h is -9.58%.
The figure for `CCn1ncc2c1CN(CCc1cccc(Cl)c1)CC2COC` (stereo not given) is -8.31%; for `O=C(NCCc1cccs1)[C@]12COC[C@H]1CN(Cc1ccccn1)C2` it is 39.1%.
The figure for `CN(Cc1cccnc1)C[C@H]1OC[C@@H]2CCN(C(=O)C3CC3)C[C@@H]21` is -9.16%; for `Cc1ccc(CN2CC[C@H]3[C@H](CO[C@H]3CN(C)C)C2)o1` it is -11.7%; for `Cn1cc(N2CC[C@@H]3CN(Cc4ccncc4)C[C@H]3C2=O)cn1` it is 2.33%.
